Laboratory results taken from patent US7390510B2, “Preparation of hypericin bonded with poly-N-vinylamides” (Sanochemia Pharmazeutika AG, priority 2000, dated 2008).

How the values were obtained:
[1] = Time-dependent solubility of hypericin after complexation by PVP (absorption and fluorescence, FIG. 1); format: physicochemical
[2] = in vivo; cited from earlier work

Cc1cc(O)c2c(=O)c3c(O)cc(O)c4c5c(O)cc(O)c6c(=O)c7c(O)cc(C)c8c1c2c(c34)c(c78)c65 [hypericin]
solubility state in aqueous environment ([1]; aqueous solution, with or without PVP): forms at once insoluble aggregates | absorption in the relevant spectral region ([1]; aqueous, hypericin+PVP after 30, 60, 180 minutes): no absorption | biological half-life [2]: 34-38 h
